Patent publication US10251395B2, “Substituted furano-/thienocycloalkylamino-2-pyrimidine derivatives and use thereof for controlling undesired plant growth” (Bayer CropScience Aktiengesellschaft, priority 2015, dated 2019)

What was measured:
Abutilon theophrasti [1] = assay: Pre-emergence herbicidal effect; format: in vivo; settings: scored visually after 3 weeks
In short: (§1)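 Greenhouse pre-emergence test: compound sprayed onto covering soil over sown seeds, assessed by eye after 3 weeks. Scale runs from 0% (like control) to 100% (plants died).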

Alopecurus myosuroides [2] = assay: Pre-emergence herbicidal effect; format: in vivo; settings: scored visually after 3 weeks
In short: as §1

Amaranthus retroflexus [3] = assay: Pre-emergence herbicidal effect; format: in vivo; settings: scored visually after 3 weeks
In short: as §1

Cyperus esculentus = assay: Pre-emergence herbicidal effect; format: in vivo; settings: Dosage 320 g/ha, scored visually after 3 weeks
In short: as §1

Echinochloa crus-galli [4] = assay: Pre-emergence herbicidal effect; format: in vivo; settings: scored visually after 3 weeks
In short: as §1

Matricaria inodora [5] = assay: Pre-emergence herbicidal effect; format: in vivo; settings: scored visually after 3 weeks
In short: as §1

Polygonum convolvulus [6] = assay: Pre-emergence herbicidal effect; format: in vivo; settings: scored visually after 3 weeks
In short: as §1

Setaria viridis [7] = assay: Pre-emergence herbicidal effect; format: in vivo; settings: scored visually after 3 weeks
In short: as §1

Stellaria media [8] = assay: Pre-emergence herbicidal effect; format: in vivo; settings: scored visually after 3 weeks
In short: as §1

Veronica persica [9] = assay: Pre-emergence herbicidal effect; format: in vivo; settings: scored visually after 3 weeks
In short: as §1

Viola tricolor [10] = assay: Pre-emergence herbicidal effect; format: in vivo; settings: scored visually after 3 weeks
In short: as §1

Abutilon theophrasti [11] = assay: Post-emergence herbicidal effect; format: in vivo; settings: assessed visually after about 3 weeks vs untreated controls
In short: (§2)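 Seedlings at the one-leaf stage, about 2 to 3 weeks old, are sprayed on their foliage with compound suspended or emulsified in water containing 0.2% wetting agent. After roughly 3 weeks in the greenhouse, injury is estimated visually on a 0 to 100% scale.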

Alopecurus myosuroides [12] = assay: Post-emergence herbicidal effect; format: in vivo; settings: 320 g/ha, assessed visually after about 3 weeks vs untreated controls
In short: as §2

Amaranthus retroflexus [13] = assay: Post-emergence herbicidal effect; format: in vivo; settings: assessed visually after about 3 weeks vs untreated controls
In short: as §2

Echinochloa crus-galli [14] = assay: Post-emergence herbicidal effect; format: in vivo; settings: assessed visually after about 3 weeks vs untreated controls
In short: as §2

Lolium multiflorum [15] = assay: Post-emergence herbicidal effect; format: in vivo; settings: 320 g/ha, assessed visually after about 3 weeks vs untreated controls
In short: as §2

Setaria viridis [16] = assay: Post-emergence herbicidal effect; format: in vivo; settings: assessed visually after about 3 weeks vs untreated controls
In short: as §2

Stellaria media [17] = assay: Post-emergence herbicidal effect; format: in vivo; settings: assessed visually after about 3 weeks vs untreated controls
In short: as §2

Veronica persica [18] = assay: Post-emergence herbicidal effect; format: in vivo; settings: assessed visually after about 3 weeks vs untreated controls
In short: as §2

Viola tricolor [19] = assay: Post-emergence herbicidal effect; format: in vivo; settings: assessed visually after about 3 weeks vs untreated controls
In short: as §2

Avena fatua = assay: Pre-emergence herbicidal effect; format: in vivo; settings: Dosage 320 g/ha, scored visually after 3 weeks
In short: as §1

Ipomoea purpurea [20] = assay: Pre-emergence herbicidal effect; format: in vivo; settings: scored visually after 3 weeks
In short: as §1

Lolium multiflorum [21] = assay: Pre-emergence herbicidal effect; format: in vivo; settings: Dosage 320 g/ha, scored visually after 3 weeks
In short: as §1

Ipomoea purpurea [22] = assay: Post-emergence herbicidal effect; format: in vivo; settings: assessed visually after about 3 weeks vs untreated controls
In short: as §2

Matricaria inodora [23] = assay: Post-emergence herbicidal effect; format: in vivo; settings: assessed visually after about 3 weeks vs untreated controls
In short: as §2

Polygonum convolvulus [24] = assay: Post-emergence herbicidal effect; format: in vivo; settings: 320 g/ha, assessed visually after about 3 weeks vs untreated controls
In short: as §2

logP (HCOOH) = format: physicochemical; settings: HCOOH
Text: Table 2 (physicochemical characterization of selected synthesis examples)

SMILES	ALOMY pre-emergence efficacy (herbicidal activity) (Alopecurus myosuroides [2]; Dosage 320 g/ha)	AMARE pre-emergence efficacy (herbicidal activity) (Amaranthus retroflexus [3]; Dosage 80 g/ha)	AMARE pre-emergence efficacy (herbicidal activity) (Amaranthus retroflexus [3]; Dosage 320 g/ha)	ECHCG pre-emergence efficacy (herbicidal activity) (Echinochloa crus-galli [4]; Dosage 320 g/ha)	MATIN pre-emergence efficacy (herbicidal activity) (Matricaria inodora [5]; Dosage 80 g/ha)	MATIN pre-emergence efficacy (herbicidal activity) (Matricaria inodora [5]; Dosage 320 g/ha)	POLCO pre-emergence efficacy (herbicidal activity) (Polygonum convolvulus [6]; Dosage 320 g/ha)	SETVI pre-emergence efficacy (herbicidal activity) (Setaria viridis [7]; Dosage 80 g/ha)	SETVI pre-emergence efficacy (herbicidal activity) (Setaria viridis [7]; Dosage 320 g/ha)	STEME pre-emergence efficacy (herbicidal activity) (Stellaria media [8]; Dosage 80 g/ha)	STEME pre-emergence efficacy (herbicidal activity) (Stellaria media [8]; Dosage 320 g/ha)	VERPE pre-emergence efficacy (herbicidal activity) (Veronica persica [9]; Dosage 80 g/ha)	VERPE pre-emergence efficacy (herbicidal activity) (Veronica persica [9]; Dosage 320 g/ha)	VIOTR pre-emergence efficacy (herbicidal activity) (Viola tricolor [10]; Dosage 80 g/ha)	VIOTR pre-emergence efficacy (herbicidal activity) (Viola tricolor [10]; Dosage 320 g/ha)	post-emergence efficacy AMARE (Amaranthus retroflexus [13]; 320 g/ha)	post-emergence efficacy STEME (Stellaria media [17]; 320 g/ha)	post-emergence efficacy VERPE (Veronica persica [18]; 320 g/ha)	post-emergence efficacy VIOTR (Viola tricolor [19]; 80 g/ha)	post-emergence efficacy VIOTR (Viola tricolor [19]; 320 g/ha)	further results
Cc1cc2c(s1)C(Nc1ncc(S(C)(=O)=O)c(N)n1)CCC2 (racemic) [compound 19]	100%	100%	100%	100%	100%	100%	80%	100%	100%	100%	100%	100%	100%	100%	100%	90%	100%	100%	90%	100%	ABUTH pre-emergence efficacy (herbicidal activity) (Abutilon theophrasti [1]; Dosage 80 g/ha): 80%; ABUTH pre-emergence efficacy (herbicidal activity) (Abutilon theophrasti [1]; Dosage 320 g/ha): 100%; CYPES pre-emergence efficacy (herbicidal activity) (Cyperus esculentus): 80%; ECHCG pre-emergence efficacy (herbicidal activity) (Echinochloa crus-galli [4]; Dosage 80 g/ha): 100%; post-emergence efficacy ABUTH (Abutilon theophrasti [11]; 80 g/ha): 90%; post-emergence efficacy ABUTH (Abutilon theophrasti [11]; 320 g/ha): 90%; post-emergence efficacy ALOMY (Alopecurus myosuroides [12]): 90%; post-emergence efficacy AMARE (Amaranthus retroflexus [13]; 80 g/ha): 80%; post-emergence efficacy ECHCG (Echinochloa crus-galli [14]; 80 g/ha): 100%; post-emergence efficacy ECHCG (Echinochloa crus-galli [14]; 320 g/ha): 100%; post-emergence efficacy LOLMU (Lolium multiflorum [15]): 80%; post-emergence efficacy SETVI (Setaria viridis [16]; 80 g/ha): 90%; post-emergence efficacy SETVI (Setaria viridis [16]; 320 g/ha): 100%; post-emergence efficacy STEME (Stellaria media [17]; 80 g/ha): 80%; post-emergence efficacy VERPE (Veronica persica [18]; 80 g/ha): 90%
CS(=O)(=O)c1cnc(NC2CCCc3sccc32)nc1N (racemic) [compound 23]	80%	100%	100%	100%	100%	100%	100%		100%	100%	100%	100%	100%	100%	100%	80%	90%	90%	80%	100%	AVEFA pre-emergence efficacy (herbicidal activity) (Avena fatua): 90%; PHBPU pre-emergence efficacy (herbicidal activity) (Ipomoea purpurea [20]; Dosage 320 g/ha): 100%; LOLMU pre-emergence efficacy (herbicidal activity) (Lolium multiflorum [21]): 100%; POLCO pre-emergence efficacy (herbicidal activity) (Polygonum convolvulus [6]; Dosage 80 g/ha): 100%; post-emergence efficacy AMARE (Amaranthus retroflexus [13]; 80 g/ha): 80%; post-emergence efficacy ECHCG (Echinochloa crus-galli [14]; 320 g/ha): 80%; post-emergence efficacy PHBPU (Ipomoea purpurea [22]; 80 g/ha): 80%; post-emergence efficacy PHBPU (Ipomoea purpurea [22]; 320 g/ha): 80%; post-emergence efficacy LOLMU (Lolium multiflorum [15]): 80%; post-emergence efficacy MATIN (Matricaria inodora [23]; 80 g/ha): 80%; post-emergence efficacy MATIN (Matricaria inodora [23]; 320 g/ha): 100%; post-emergence efficacy POLCO (Polygonum convolvulus [24]): 80%; post-emergence efficacy VERPE (Veronica persica [18]; 80 g/ha): 90%
CCOC(=O)c1cnc(NC2CCCc3sc(C)cc32)nc1C (racemic) [compound 240]			80%		90%	100%	70%	90%	100%	100%	100%	100%	100%	70%	100%						ABUTH pre-emergence efficacy (herbicidal activity) (Abutilon theophrasti [1]; Dosage 320 g/ha): 70%; PHBPU pre-emergence efficacy (herbicidal activity) (Ipomoea purpurea [20]; Dosage 320 g/ha): 10%; LOLMU pre-emergence efficacy (herbicidal activity) (Lolium multiflorum [21]): 60%; POLCO pre-emergence efficacy (herbicidal activity) (Polygonum convolvulus [6]; Dosage 80 g/ha): 70%
C/C(=N/OCc1ccccc1)c1cnc(NC2CCCc3sc(C)cc32)nc1N (racemic) [compound 291]	90%		100%	80%	100%	100%	70%	90%	100%	100%	100%	100%	100%	90%	100%	80%		60%	80%	80%	ALOMY pre-emergence efficacy (herbicidal activity) (Alopecurus myosuroides [2]; Dosage 80 g/ha): 60%; PHBPU pre-emergence efficacy (herbicidal activity) (Ipomoea purpurea [20]; Dosage 320 g/ha): 100%; LOLMU pre-emergence efficacy (herbicidal activity) (Lolium multiflorum [21]): 60%; post-emergence efficacy ABUTH (Abutilon theophrasti [11]; 80 g/ha): 80%; post-emergence efficacy ABUTH (Abutilon theophrasti [11]; 320 g/ha): 90%; post-emergence efficacy MATIN (Matricaria inodora [23]; 320 g/ha): 80%; post-emergence efficacy SETVI (Setaria viridis [16]; 80 g/ha): 60%; post-emergence efficacy SETVI (Setaria viridis [16]; 320 g/ha): 80%
Cc1cc2c(s1)CCCC2Nc1nc(N)c(-c2cccc(F)c2)c(C(F)F)n1 (racemic) [compound 302]	70%	100%	100%	100%	90%	100%	100%	70%	100%	100%	100%						80%		90%	90%	ABUTH pre-emergence efficacy (herbicidal activity) (Abutilon theophrasti [1]; Dosage 320 g/ha): 80%; PHBPU pre-emergence efficacy (herbicidal activity) (Ipomoea purpurea [20]; Dosage 80 g/ha): 60%; PHBPU pre-emergence efficacy (herbicidal activity) (Ipomoea purpurea [20]; Dosage 320 g/ha): 80%; POLCO pre-emergence efficacy (herbicidal activity) (Polygonum convolvulus [6]; Dosage 80 g/ha): 70%; post-emergence efficacy ABUTH (Abutilon theophrasti [11]; 320 g/ha): 60%
O=S1(=O)CCCc2nc(N[C@@H]3CCCc4sccc43)ncc21 [compound 73]	90%	100%	100%	100%	100%	100%	100%	80%	100%	100%	100%	100%	100%		100%	80%	100%	100%		60%	ALOMY pre-emergence efficacy (herbicidal activity) (Alopecurus myosuroides [2]; Dosage 80 g/ha): 80%; CYPES pre-emergence efficacy (herbicidal activity) (Cyperus esculentus): 100%; ECHCG pre-emergence efficacy (herbicidal activity) (Echinochloa crus-galli [4]; Dosage 80 g/ha): 100%; LOLMU pre-emergence efficacy (herbicidal activity) (Lolium multiflorum [21]): 100%; POLCO pre-emergence efficacy (herbicidal activity) (Polygonum convolvulus [6]; Dosage 80 g/ha): 100%; post-emergence efficacy ECHCG (Echinochloa crus-galli [14]; 320 g/ha): 100%; post-emergence efficacy MATIN (Matricaria inodora [23]; 80 g/ha): 100%; post-emergence efficacy MATIN (Matricaria inodora [23]; 320 g/ha): 100%; post-emergence efficacy STEME (Stellaria media [17]; 80 g/ha): 90%; post-emergence efficacy VERPE (Veronica persica [18]; 80 g/ha): 80%; logP (HCOOH) (logP (HCOOH)): oily; logP (HCOOH): 2.38;
